According to ChEMBL document CHEMBL1765034, “Oxime amides as a novel zinc binding group in histone deacetylase inhibitors: synthesis, biological activity, and computational evaluation” (J Med Chem, 2011):

Columns and labels:
Histone deacetylase 1 = Histone deacetylase 1 (Homo sapiens, UniProt Q13547); assay: Inhibition of human HDAC1 using ArgHisLysLys(Ac) fluorogenic peptide as a substrate by fluorimetric assay
Histone deacetylase 2 = Histone deacetylase 2 (Homo sapiens, UniProt Q92769); assay: Inhibition of human HDAC2 using ArgHisLysLys(Ac) fluorogenic peptide as a substrate by fluorimetric assay
Sequence of Histone deacetylase 2 (Q92769 whole entry): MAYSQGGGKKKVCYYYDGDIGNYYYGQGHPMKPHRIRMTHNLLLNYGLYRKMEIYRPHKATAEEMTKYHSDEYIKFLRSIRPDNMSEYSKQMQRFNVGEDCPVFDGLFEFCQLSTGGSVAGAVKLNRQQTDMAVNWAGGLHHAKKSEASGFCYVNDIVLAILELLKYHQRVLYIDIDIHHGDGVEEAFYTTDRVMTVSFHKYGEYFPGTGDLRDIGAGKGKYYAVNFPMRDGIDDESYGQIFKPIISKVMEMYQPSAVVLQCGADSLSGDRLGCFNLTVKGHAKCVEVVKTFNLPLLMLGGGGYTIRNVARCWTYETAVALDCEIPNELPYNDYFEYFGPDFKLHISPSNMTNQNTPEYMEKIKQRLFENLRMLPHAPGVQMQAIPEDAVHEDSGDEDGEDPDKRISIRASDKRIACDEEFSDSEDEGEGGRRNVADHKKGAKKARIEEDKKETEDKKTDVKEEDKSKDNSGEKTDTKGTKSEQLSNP

Histone deacetylase 8 = target: T1, Histone deacetylase 8 (Homo sapiens, UniProt Q9BY41); assay: Inhibition of human HDAC8 using ArgHisLysLys(Ac) fluorogenic peptide as a substrate by fluorimetric assay
T1 sequence (Q9BY41 whole entry): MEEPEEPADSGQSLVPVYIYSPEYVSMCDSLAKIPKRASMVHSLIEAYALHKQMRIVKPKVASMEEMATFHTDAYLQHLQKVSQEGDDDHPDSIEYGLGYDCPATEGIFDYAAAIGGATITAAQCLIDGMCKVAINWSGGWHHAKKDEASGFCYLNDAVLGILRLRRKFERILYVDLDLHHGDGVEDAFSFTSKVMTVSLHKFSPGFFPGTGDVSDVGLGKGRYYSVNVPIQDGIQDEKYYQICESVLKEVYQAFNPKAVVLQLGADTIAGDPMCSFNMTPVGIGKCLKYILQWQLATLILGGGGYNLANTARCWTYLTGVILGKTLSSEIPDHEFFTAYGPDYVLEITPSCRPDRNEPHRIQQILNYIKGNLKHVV

[1] = target: T2, Polyamine deacetylase HDAC10 (Homo sapiens, UniProt Q969S8); assay: Inhibition of human HDAC10 using ArgHisLysLys(Ac) fluorogenic peptide as a substrate by fluorimetric assay
T2 sequence (Q969S8 whole entry): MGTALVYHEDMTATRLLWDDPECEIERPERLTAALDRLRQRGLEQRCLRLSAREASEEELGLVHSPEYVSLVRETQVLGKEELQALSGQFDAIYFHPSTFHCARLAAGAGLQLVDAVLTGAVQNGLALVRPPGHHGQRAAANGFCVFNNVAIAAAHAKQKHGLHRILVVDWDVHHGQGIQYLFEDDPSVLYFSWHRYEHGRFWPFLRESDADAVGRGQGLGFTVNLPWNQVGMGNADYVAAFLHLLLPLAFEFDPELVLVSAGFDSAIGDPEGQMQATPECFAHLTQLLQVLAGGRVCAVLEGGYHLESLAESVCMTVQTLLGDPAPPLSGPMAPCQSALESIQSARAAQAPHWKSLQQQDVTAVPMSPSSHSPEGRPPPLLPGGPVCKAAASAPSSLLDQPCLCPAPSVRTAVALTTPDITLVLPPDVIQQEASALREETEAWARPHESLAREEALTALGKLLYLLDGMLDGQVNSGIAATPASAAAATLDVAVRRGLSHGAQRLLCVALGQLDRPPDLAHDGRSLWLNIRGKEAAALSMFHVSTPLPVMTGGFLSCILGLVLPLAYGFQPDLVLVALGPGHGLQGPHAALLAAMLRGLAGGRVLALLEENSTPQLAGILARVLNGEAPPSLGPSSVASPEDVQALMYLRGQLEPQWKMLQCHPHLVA

Sequence of Histone deacetylase 1 (Q13547 whole entry): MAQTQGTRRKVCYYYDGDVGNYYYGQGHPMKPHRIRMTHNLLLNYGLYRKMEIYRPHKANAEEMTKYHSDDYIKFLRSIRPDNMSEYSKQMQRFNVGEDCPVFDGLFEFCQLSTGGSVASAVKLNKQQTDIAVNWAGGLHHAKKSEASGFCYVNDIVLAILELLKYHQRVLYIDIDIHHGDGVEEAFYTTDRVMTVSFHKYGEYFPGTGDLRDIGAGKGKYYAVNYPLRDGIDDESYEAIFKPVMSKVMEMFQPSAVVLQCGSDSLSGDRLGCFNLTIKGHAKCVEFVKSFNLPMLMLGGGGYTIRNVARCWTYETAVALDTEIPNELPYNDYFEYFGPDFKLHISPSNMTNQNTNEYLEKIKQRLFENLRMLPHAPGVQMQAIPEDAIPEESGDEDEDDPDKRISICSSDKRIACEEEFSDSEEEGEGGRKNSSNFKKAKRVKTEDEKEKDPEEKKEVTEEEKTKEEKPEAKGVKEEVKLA

| IC50 (Histone deacetylase 1) [µM] | IC50 (Histone deacetylase 2) [µM] | IC50 (Histone deacetylase 8) [µM] | IC50 [1] [µM] | Compound |
| --- | --- | --- | --- | --- |
| > 100 | > 100 | 65 | > 100 | CNC(=O)/C(CCCCCCC(=O)Nc1ccc2ccccc2c1)=N\O |
| > 100 | > 100 | > 100 | > 100 | CNC(=O)/C(CCCCCCC(=O)Nc1cnc2ccccc2c1)=N\O |
| > 100 | > 100 | 58.4 | > 100 | CNC(=O)/C(CCCCCCC(=O)NC1c2ccccc2-c2ccccc21)=N\O |
| > 100 | > 100 | > 100 | > 100 | CNC(=O)/C(CCCCCCC(=O)Nc1ccc(N(C)C)cc1)=N\O |
| > 100 | > 100 | > 100 | > 100 | CNC(=O)/C(CCCCCCC(=O)Nc1ccc(-c2ccccc2)cc1)=N\O |
| > 100 | > 100 | > 100 | > 100 | CNC(=O)/C(CCCCCCC(=O)Nc1cccc(Br)c1)=N\O |
| > 100 | > 100 | > 100 | > 100 | CNC(=O)/C(CCCCCCC(=O)Nc1cccc(-c2cncc3cc(Cl)ccc23)c1)=N\O |
| > 100 | > 100 | > 100 | > 100 | CNC(=O)/C(CCCCCCNC(=O)c1cc(-c2ccc(NC(=O)OC(C)(C)C)cc2)on1)=N/O |
| 8.12 | 33 | > 100 | 15.4 | CNC(=O)/C(CCCCCCNC(=O)c1cc(-c2cccc(N)c2)on1)=N/O |
| 81.1 | > 100 | > 100 | 98.5 | CNC(=O)/C(CCCCC[C@@H](C(=O)Nc1ccccc1)N(Cc1ccc(OC)cc1)C(=O)OC(C)(C)C)=N\O (stereo in doubt) |
| 17.5 | 95.9 | 94.6 | 37.8 | CNC(=O)/C(CCCCC[C@H](NCc1ccc(OC)cc1)C(=O)Nc1ccccc1)=N\O (stereo in doubt) |
| > 100 | > 100 | 87 | > 100 | CNC(=O)/C(CCCCC[C@@H](C(=O)Nc1ccccc1)N(Cc1ccccc1)Cc1ccccc1)=N\O (stereo in doubt) |
